Source: patent US20090005435A1, “Novel Compounds, Pharmaceutical Compositions Containing Same, and Methods of Use for Same” (priority 2004, published 2009)
Converted amounts (≈) assume the structure as drawn.

Key:
purified human FAS = biological target: T1, purified human FAS (Homo sapiens, UniProt P49327); assay: FAS enzymatic activity (malonyl-CoA dependent NADPH oxidation); format: biochemical; conditions: for IC50: (SB)
T1 construct: Human FAS was purified from cultured ZR-75-1 human breast cancer cells; endogenous in cells; host or cells: ZR-75-1 human breast cancer cells (ATCC); enzyme purified by PEG precipitation and Mono Q chromatography
Description: Purification of FAS from ZR-75-1 Human Breast Cancer Cells.
Human FAS was purified from cultured ZR-75-1 human breast cancer cells obtained from the American Type Culture Collection. The procedure, adapted from Linn et al., 1981, and Kuhajda et al., 1994, utilizes hypotonic lysis, successive polyethyleneglycol (PEG) precipitations, and anion exchange chromatography. ZR-75-1 cells are cultured at 37° C. with 5% CO2 in RPMI culture medium with 10% fetal bovine serum, penicillin and streptomycin.
Ten T150 flasks of confluent cells are lysed with 1.5 ml lysis buffer (20 mM Tris-HCl, pH 7.5, 1 mM EDTA, 0.1 mM phenylmethanesulfonyl fluoride (PMSF), 0.1% Igepal CA-630) and dounce homogenized on ice for 20 strokes. The lysate is centrifuged in JA-20 rotor (Beckman) at 20,000 rpm for 30 minutes at 4° C. and the supernatant is brought to 42 ml with lysis buffer. A solution of 50% PEG 8000 in lysis buffer is added slowly to the supernatant to a final concentration of 7.5%. After rocking for 60 minutes at 4° C., the solution is centrifuged in JA-20 rotor (Beckman) at 15,000 rpm for 30 minutes at 4° C. Solid PEG 8000 is then added to the supernatant to a final concentration of 15%. After the rocking and centrifugation is repeated as above, the pellet is resuspended overnight at 4° C. in 10 ml of Buffer A (20 mM K2HPO4, pH 7.4). After […] filtration, the protein solution is applied to a Mono Q 5/5 anion exchange column (Pharmacia). The column is washed for 15 minutes with buffer A at 1 ml/minute, and bound material is eluted with a linear 60-ml gradient over 60 minutes to 1 M KCl. FAS (MW˜270 kD) typically elutes at 0.25 M KCl in three 0.5 ml fractions identified using 4-15% SDS-PAGE with Coomassie G250 stain (Bio-Rad). FAS protein concentration is determined using the Coomassie Plus Protein Assay Reagent (Pierce) according to manufacturer's specifications using BSA as a standard. This procedure results in substantially pure preparations of FAS (>95%) as judged by Coomassie-stained gels.
Measurement of FAS Enzymatic Activity and Determination of the IC50 of the Compounds
FAS activity is measured by monitoring the malonyl-CoA dependent oxidation of NADPH spectrophotometrically at OD340 in 96-well plates (Dils et al and Arslanian et al, 1975). Each well contains 2 μg purified FAS, 100 mM K2HPO4, pH 6.5, 1 mM dithiothreitol (Sigma), and 187.5 μM β-NADPH (Sigma). Stock solutions of inhibitors are prepared in DMSO at 2, 1, and 0.5 mg/ml resulting in final concentrations of 20, 10, and 5 μg/ml when 1 μl of stock is added per well. For each experiment, cerulenin (Sigma) is run as a positive control along with DMSO controls, inhibitors, and blanks (no FAS enzyme) all in duplicate.
The assay is performed on a Molecular Devices SpectraMax Plus Spectrophotometer. The plate containing FAS, buffers, inhibitors, and controls are placed in the spectrophotometer heated to 37° C. Using the kinetic protocol, the wells are blanked on duplicate wells containing 100 μl of 100 mM K2HPO4, pH 6.5 and the plate is read at OD340 at 10 sec intervals for 5 minutes to measure any malonyl-CoA independent oxidation of NADPH. The plate is removed from the spectrophotometer and malonyl-CoA (67.4 μM, final concentration per well) and […] (61.8 μM, final concentration per well) are added to each well except to the blanks. The plate is read again as above with the kinetic protocol to measure the malonyl-CoA dependent NADPH oxidation. The difference between the Δ OD340 for the malonyl-CoA dependent and non-malonyl-CoA dependent NADPH oxidation is the specific FAS activity. Because of the purity of the FAS preparation, non-malonyl-CoA dependent NADPH oxidation is negligible.
The IC50 for the compounds against FAS is determined by plotting the Δ OD340 for each inhibitor concentration tested, performing linear regression and computing the best-fit line, r^2 values, and 95% confidence intervals. The concentration of compound yielding 50% inhibition of FAS is the IC50. […]

[1] = tested on: MCF-7 human breast cancer cells; assay: XTT cytotoxicity assay (M); format: cell-based; conditions: MCF7
Description: The XTT assay is a non-radioactive alternative for the [^51Cr] release cytotoxicity assay. XTT is a tetrazolium salt that is reduced to a formazan dye only by metabolically active, viable cells. The reduction of XTT is measured spectrophotometrically as OD490-OD650.
To measure the cytotoxicity of specific compounds against cancer cells, 9×10^3 MCF-7 human breast cancer cells, obtained from the American Type Culture Collection are plated per well in 96 well plates in DMEM medium with 10% fetal bovine serum, insulin, penicillin, and streptomycin. Following overnight culture at 37° C. and 5% CO2, the compounds to be tested, dissolved in DMSO, are added to the wells in 1 μl volume at the following concentrations: 80, 40, 20, 10, 5, 2.5, 1.25, and 0.625 μg/ml in triplicate. Additional concentrations are tested if required. 1 μl of DMSO is added to triplicate wells are the vehicle control. C75 is run at 40, 20, […], and 5 μg/ml in triplicate as positive controls.
After 72 hours of incubation, cells are incubated for 4 hours with the XTT reagent as per manufacturer's instructions (Cell Proliferation Kit II (XTT) Roche). Plates are read at OD490 and OD650 on a Molecular Devices SpectraMax Plus Spectrophotometer. Three wells containing the XTT reagent without cells serve as the plate blank. XTT data are reported as OD490-OD650. Averages and standard error of the mean are computed using SOFTmax Pro software ([…]).
The IC50 for the compounds is defined as the concentration of drug leading to a 50% reduction in OD490-OD650 compared to controls. The OD490-OD650 are computed by the SOFTmax PRO software (Molecular Devices) for each compound concentration. IC50 is calculated by linear regression, plotting the FAS activity as percent of control versus drug concentrations. Linear regression, best-fit line, r^2, and 95% confidence intervals are determined using Prism Version 3.0 (Graph Pad Software).

T1 sequence (P49327 whole entry): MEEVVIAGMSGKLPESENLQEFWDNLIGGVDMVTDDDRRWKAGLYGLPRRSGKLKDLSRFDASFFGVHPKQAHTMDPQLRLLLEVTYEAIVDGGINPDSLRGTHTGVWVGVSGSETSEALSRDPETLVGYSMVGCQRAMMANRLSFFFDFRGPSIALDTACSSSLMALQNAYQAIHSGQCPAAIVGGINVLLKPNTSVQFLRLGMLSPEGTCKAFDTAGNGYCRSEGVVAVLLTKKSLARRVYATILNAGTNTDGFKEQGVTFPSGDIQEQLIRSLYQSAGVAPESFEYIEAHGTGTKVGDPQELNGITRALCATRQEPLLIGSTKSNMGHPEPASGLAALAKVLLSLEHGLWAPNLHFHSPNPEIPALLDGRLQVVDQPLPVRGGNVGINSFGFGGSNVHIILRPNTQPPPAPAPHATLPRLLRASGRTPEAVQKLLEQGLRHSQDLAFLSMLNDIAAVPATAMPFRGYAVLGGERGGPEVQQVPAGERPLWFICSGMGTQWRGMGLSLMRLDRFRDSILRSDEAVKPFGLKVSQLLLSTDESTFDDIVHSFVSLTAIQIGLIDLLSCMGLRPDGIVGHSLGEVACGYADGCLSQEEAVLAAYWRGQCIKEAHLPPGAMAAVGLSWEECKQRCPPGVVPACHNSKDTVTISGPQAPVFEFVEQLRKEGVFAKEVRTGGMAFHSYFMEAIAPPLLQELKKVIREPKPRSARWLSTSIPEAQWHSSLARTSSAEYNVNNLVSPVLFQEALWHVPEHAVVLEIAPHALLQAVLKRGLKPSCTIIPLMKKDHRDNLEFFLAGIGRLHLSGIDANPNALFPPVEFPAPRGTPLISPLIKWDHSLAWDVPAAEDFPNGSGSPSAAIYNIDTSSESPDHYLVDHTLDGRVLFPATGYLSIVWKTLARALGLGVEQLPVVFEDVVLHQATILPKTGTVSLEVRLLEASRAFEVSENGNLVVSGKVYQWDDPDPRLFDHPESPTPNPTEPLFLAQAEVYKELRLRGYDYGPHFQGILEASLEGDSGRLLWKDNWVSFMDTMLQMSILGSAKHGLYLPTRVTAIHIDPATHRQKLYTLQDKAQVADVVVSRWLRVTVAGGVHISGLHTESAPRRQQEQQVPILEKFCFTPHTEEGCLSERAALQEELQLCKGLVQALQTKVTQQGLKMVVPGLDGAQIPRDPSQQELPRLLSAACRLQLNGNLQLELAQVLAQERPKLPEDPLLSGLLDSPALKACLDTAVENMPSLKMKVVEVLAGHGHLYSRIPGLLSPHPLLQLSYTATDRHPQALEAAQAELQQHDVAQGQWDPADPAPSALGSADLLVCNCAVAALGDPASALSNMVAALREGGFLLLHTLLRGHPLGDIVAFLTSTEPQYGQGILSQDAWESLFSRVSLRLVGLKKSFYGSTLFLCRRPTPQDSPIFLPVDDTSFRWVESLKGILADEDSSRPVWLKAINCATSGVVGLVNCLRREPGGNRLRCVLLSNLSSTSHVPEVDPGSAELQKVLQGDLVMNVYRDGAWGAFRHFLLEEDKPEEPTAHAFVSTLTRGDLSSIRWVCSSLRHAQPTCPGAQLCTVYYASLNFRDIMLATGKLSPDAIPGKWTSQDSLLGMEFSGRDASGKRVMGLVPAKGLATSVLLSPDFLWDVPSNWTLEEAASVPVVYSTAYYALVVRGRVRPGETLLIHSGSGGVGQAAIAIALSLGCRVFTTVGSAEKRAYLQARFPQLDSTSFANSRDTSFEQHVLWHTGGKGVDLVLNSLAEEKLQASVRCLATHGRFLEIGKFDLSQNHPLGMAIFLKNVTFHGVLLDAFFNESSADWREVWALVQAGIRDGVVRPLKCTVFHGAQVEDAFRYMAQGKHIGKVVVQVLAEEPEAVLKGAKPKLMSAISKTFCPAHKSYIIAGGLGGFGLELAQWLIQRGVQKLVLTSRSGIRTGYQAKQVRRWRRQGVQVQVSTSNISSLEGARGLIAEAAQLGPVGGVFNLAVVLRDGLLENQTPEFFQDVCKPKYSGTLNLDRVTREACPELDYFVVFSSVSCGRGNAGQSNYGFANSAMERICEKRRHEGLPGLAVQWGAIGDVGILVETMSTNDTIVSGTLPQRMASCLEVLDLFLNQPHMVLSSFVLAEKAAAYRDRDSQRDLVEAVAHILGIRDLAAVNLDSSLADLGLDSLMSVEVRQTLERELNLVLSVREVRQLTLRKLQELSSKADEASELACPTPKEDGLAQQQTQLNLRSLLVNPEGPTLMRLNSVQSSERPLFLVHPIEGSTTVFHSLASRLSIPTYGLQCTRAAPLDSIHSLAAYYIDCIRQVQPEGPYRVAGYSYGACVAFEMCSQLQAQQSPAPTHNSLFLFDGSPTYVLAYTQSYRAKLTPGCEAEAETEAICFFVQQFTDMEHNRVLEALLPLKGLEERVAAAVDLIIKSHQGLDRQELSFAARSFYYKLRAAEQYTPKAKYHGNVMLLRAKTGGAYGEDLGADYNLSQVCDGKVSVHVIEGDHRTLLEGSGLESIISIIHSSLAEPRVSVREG

Row | SMILES | FAS (IC50) (purified human FAS) | IC50 (purified human FAS) | IC50 [1]
1 | C=CCC1(CC=C)C(=O)SC(C)(CCCCCCCC)C1=O (racemic) [Compound 4, 3,3-Diallyl-5-methyl-5-octyl-thiophene-2,4-dione] | Neg | 884 µM | 40.5 ± 14.8 µg/mL (≈ 126 µM)
2 | CCCCCCCCCCC1(C)SC(=O)C(C)(C)C1=O (stereo not shown) [Compound 12, 3,3,5-Trimethyl-5-decyl-thiophene-2,4-dione] |  | 854 µM | 23.2 µg/mL (≈ 77.7 µM)
3 | C=CCC1(CC=C)C(=O)SC(C)(CCCCCCCCCC)C1=O (stereo not shown) [Compound 15, 3,3-Diallyl-5-methyl-5-decyl-thiophene-2,4-dione] |  | 804 µM | 71.8 µg/mL (≈ 205 µM)
